Measurements: patent publication US11236047B2 (ASTEX THERAPEUTICS LIMITED, priority 2017, dated 2022)

Tested on: SJSA-1 cells
Test: Protocol B: SJSA-1 CellTiter-Glo luminescent cell viability assay
Conditions: Homo sapiens, SJSA-1, read-out: SJSA1 IC50 (μM) (Protocol B), SJSA-1, Protocol B

**Q.** With `Cc1nc(C(C)(O)c2cc(F)c3c(c2)C(=O)N(Cc2ccc(Cl)cn2)[C@@]3(OCC2(C(N)=O)CC2)c2ccc(Cl)cc2)cn1C` (single isomer, unassigned) [Example 197] as the compound, how does the IC50 read?
**A.** The IC50 was 0.21 µM.

**Q.** With `CCn1cc(C(C)(O)c2cc(F)c3c(c2)C(=O)N(Cc2ccc(Cl)cn2)[C@@]3(OCC2(C(N)=O)CC2)c2ccc(Cl)cc2)cn1` (single isomer, unassigned) [Example 180] as the compound, how does the IC50 read?
**A.** Its IC50 is 0.16 µM.

**Q.** For `CC(O)(c1cc(F)c2c(c1)C(=O)N(Cc1ccc(Cl)cn1)[C@@]2(OCC1(O)CC1)c1ccc(Cl)cc1)c1ncccn1` (single isomer, unassigned) [Example 396], which IC50 is on record?
**A.** The IC50 was 0.28 µM.

Same assay, conditions: Homo sapiens, SJSA-1, read-out: SJSA1 IC50 (μM), Protocol B, SJSA-1

**Q.** With `O=C1c2cc(C(O)C3CCS(=O)(=O)CC3)cc(F)c2[C@](OCC2(O)CC2)(c2ccc(Cl)cc2)N1Cc1ncc(Cl)cn1` (stereo partly drawn) [Example 400, 4-{[(1R)-1-(4-chlorophenyl)-2-[(5-chloropyrimidin-2-yl)methyl]-7-fluoro-1-[(1-hydroxycyclopropyl)methoxy]-3-oxo-2,3-dihydro-1H-isoindol-5-yl](hydroxy)methyl}-1λ6-thiane-1,1-dione] as the compound, how does the IC50 read?
**A.** The IC50 was 1.1 µM.

**Q.** `CCC(O)(c1cc(F)c2c(c1)C(=O)N(Cc1ccc(Cl)nc1)[C@@]2(OCCO)c1ccc(Cl)cc1)c1cn(C)cn1` (stereo partly drawn) [Example 367, (3R)-3-(4-chlorophenyl)-2-[(6-chloropyridin-3-yl)methyl]-4-fluoro-6-[1-hydroxy-1-(1-methyl-1H-imidazol-4-yl)propyl]-3-(2-hydroxyethoxy)-2,3-dihydro-1H-isoindol-1-one] was tested. Which IC50 did it give?
**A.** Its IC50 is 0.11 µM.

Same assay, conditions: SJSA-1, Protocol B, at 10 μM

**Q.** With `CC(O)(c1cc(F)c2c(c1)C(=O)N(Cc1ccc(Cl)cn1)[C@@]2(OCCO)c1ccc(Cl)cc1)C1CCS(=O)(=O)CC1` (single isomer, unassigned) [Example 314] as the compound, how does the “SJSA1 (Protocol B) % at stated concentration” value read?
**A.** Its value is 66% at 10.

Same assay, conditions: read-out: SJSA1 IC50 (μM) (Protocol B); SJSA-1, Protocol B

**Q.** How did the IC50 turn out when `Cn1cc(C(C)(O)c2cc(F)c3c(c2)C(=O)N(Cc2ncc(Cl)cn2)[C@@]3(OCC2(CO)CC2)c2ccc(Cl)cc2)cn1` (single isomer, unassigned) [Example 348] was run?
**A.** The IC50 was 0.27 µM.

**Q.** For `CO[C@]1(c2ccc(Cl)cc2)c2c(F)cc(C(C)(O)c3cnn(CCN(C)C)c3)cc2C(=O)N1Cc1ccc(Cl)cn1` (stereo partly drawn) [Example 192, (3R)-3-(4-Chlorophenyl)-2-[(5-chloropyridin-2-yl)methyl]-6-(1-{1-[2-(dimethylamino)ethyl]-1H-pyrazol-4-yl}-1-hydroxyethyl)-4-fluoro-3-methoxy-2,3-dihydro-1H-isoindol-1-one], which IC50 is on record?
**A.** The IC50 was 1.4 µM.

**Q.** `CC(O)(c1cc(F)c2c(c1)C(=O)N(Cc1ncc(Cl)cn1)[C@@]2(OCC1(C(N)=O)CC1)c1ccc(Cl)cc1)C1CCC1` (single isomer, unassigned) [Example 404] was tested. Which IC50 did it give?
**A.** The IC50 was 0.095 µM.

**Q.** For `CC(O)(CN1CCCC1)c1cc(F)c2c(c1)C(=O)N(Cc1ccc(C#N)cn1)[C@@]2(OCC1(C#N)CC1)c1ccc(Cl)cc1` (single isomer, unassigned) [Example 277], which IC50 is on record?
**A.** The IC50 was 1.2 µM.

**Q.** For `CCOCC(C)(O)c1cc(F)c2c(c1)C(=O)N(Cc1ccc(Cl)cn1)[C@@]2(O[C@H]1CCOC1)c1ccc(Cl)cc1` (single isomer, unassigned) [Example 140], which IC50 is on record?
**A.** The IC50 was 0.23 µM.

**Q.** `Cc1nnc(C(C)(O)c2cc(F)c3c(c2)C(=O)N(Cc2ccc(Cl)cn2)[C@@]3(OCC2(O)CC2)c2ccc(Cl)cc2)o1` (single isomer, unassigned) [Example 186] was tested. Which IC50 did it give?
**A.** The IC50 was 0.42 µM.

**Q.** For `Cn1cc(C(C)(O)c2cc(F)c3c(c2)C(=O)N(Cc2ccc(Cl)cn2)[C@@]3(OCC2(O)CC2)c2ccc(Cl)cc2)cn1` (single isomer, unassigned) [Example 199], which IC50 is on record?
**A.** Its IC50 is 0.83 µM.

**Q.** How did the IC50 turn out when `CCn1cc(C(C)(O)c2cc(F)c3c(c2)C(=O)N(Cc2ccc(Cl)cn2)[C@@]3(OCC2(O)CC2)c2ccc(Cl)cc2)cn1` (single isomer, unassigned) [Example 183] was run?
**A.** The IC50 was 0.43 µM.

**Q.** For `Cn1cc(C(C)(O)c2cc(F)c3c(c2)C(=O)N(Cc2ccc(Cl)cn2)[C@@]3(OCC2(C#N)CC2)c2ccc(Cl)cc2)cn1` (single isomer, unassigned) [Example 202], which IC50 is on record?
**A.** Its IC50 is 0.11 µM.

**Q.** For `CCOCC(C)(O)c1cc(F)c2c(c1)C(=O)N(Cc1ccc(Cl)cn1)[C@@]2(O[C@H]1CCOC1)c1ccc(Cl)cc1` (single isomer, unassigned) [Example 141], which IC50 is on record?
**A.** The IC50 was 1.8 µM.

Tested on: SN40R2 cells
Test: Protocol B: SN40R2 CellTiter-Glo luminescent cell viability assay
Conditions: read-out: SN40R2 % inhibition at 10
Protocol: Protocol B: SJSA-1 and SN40R2 Assays
The CellTiter-Glo® Luminescent Cell Viability Assay is a homogeneous method to determine the number of viable cells in culture based on quantitation of the ATP present, which signals the presence of metabolically active cells. […] 100 μl of CTG reagent (Promega #G7573) was added to all wells and luminescence was measured on the topcount. The EC50 values were determined from a sigmoidal 4 parameter curve fit using XLfit in conjunction with Activity Base (IDBS; Guildford, Surrey, UK).

**Q.** With `CC[C@@](O)(c1cc(F)c2c(c1)C(=O)N(Cc1ncc(Cl)cn1)[C@@]2(OC)c1ccc(Cl)cc1)C1CCN(CCO)CC1` (single isomer, unassigned) [Example 550] as the compound, how does the inhibition at 10 µM read?
**A.** Its inhibition at 10 µM is 33%.

**Q.** How did the inhibition at 10 µM turn out when `CC[C@](O)(c1cc(F)c2c(c1)C(=O)N(Cc1ncc(Cl)cn1)[C@@]2(OC)c1ccc(Cl)cc1)C1CCN(C)CC1` [Example 566, (3R)-3-(4-chlorophenyl)-2-[(5-chloropyrimidin-2-yl)methyl]-4-fluoro-6-[(1R)-1-hydroxy-1-(1-methylpiperidin-4-yl)propyl]-3-methoxy-2,3-dihydro-1H-isoindol-1-one] was run?
**A.** Its inhibition at 10 µM is 46%.

**Q.** Which inhibition at 10 µM does the source give for `CC[C@@](O)(c1cc(F)c2c(c1)C(=O)N(Cc1ncc(Cl)cn1)[C@@]2(OC)c1ccc(Cl)cc1)C1CCN(C)CC1` [Example 553, (3R)-3-(4-chlorophenyl)-2-[(5-chloropyrimidin-2-yl)methyl]-4-fluoro-6-[(1S)-1-hydroxy-1-(1-methylpiperidin-4-yl)propyl]-3-methoxy-2,3-dihydro-1H-isoindol-1-one] here?
**A.** The inhibition at 10 µM was 24%.

**Q.** For `CCC(O)(c1cc(F)c2c(c1)C(=O)N(Cc1ccc(C#N)cn1)[C@@]2(O[C@H]1C[C@@H](O)C1)c1ccc(Cl)cc1)c1cnn(C)c1` (stereo partly drawn) [Example 339, 6-{[(1R)-1-(4-chlorophenyl)-7-fluoro-5-[1-hydroxy-1-(1-methyl-1H-pyrazol-4-yl)propyl]-3-oxo-1-[cis-3-hydroxycyclobutoxy]-2,3-dihydro-1H-isoindol-2-yl]methyl}pyridine-3-carbonitrile], which inhibition at 10 µM is on record?
**A.** Its inhibition at 10 µM is 3%.

**Q.** With `CC(=O)N1CCC(C(C)(O)c2cc(F)c3c(c2)C(=O)N(Cc2ncc(Cl)cn2)[C@@]3(O[C@H]2C[C@@H](O)C2)c2ccc(Cl)cc2)CC1` (single isomer, unassigned) [Example 425] as the compound, how does the inhibition at 10 µM read?
**A.** Its inhibition at 10 µM is 7%.

**Q.** `CCC(O)(c1cc(F)c2c(c1)C(=O)N(Cc1ccc(C#N)cn1)[C@@]2(OCCO)c1ccc(Cl)cc1)c1cn(C)cn1` (stereo partly drawn) [Example 364, 6-{[(1R)-1-(4-chlorophenyl)-7-fluoro-5-[1-hydroxy-1-(1-methyl-1H-imidazol-4-yl)propyl]-1-(2-hydroxyethoxy)-3-oxo-2,3-dihydro-1H-isoindol-2-yl]methyl}pyridine-3-carbonitrile] was tested. Which inhibition at 10 µM did it give?
**A.** The inhibition at 10 µM was 9%.

**Q.** For `CC(O)(c1cc(F)c2c(c1)C(=O)N(Cc1ccc(C#N)cn1)[C@@]2(O[C@H]1CCOC1)c1ccc(Cl)cc1)C1(F)CCOCC1` (stereo partly drawn) [Example 388, 6-{[(1R)-1-(4-chlorophenyl)-7-fluoro-5-[1-(4-fluorooxan-4-yl)-1-hydroxyethyl]-3-oxo-1-[(3S)-oxolan-3-yloxy]-2,3-dihydro-1H-isoindol-2-yl]methyl}pyridine-3-carbonitrile], which inhibition at 10 µM is on record?
**A.** The inhibition at 10 µM was 4%.

**Q.** For `CC(O)(c1cc(F)c2c(c1)C(=O)N(Cc1ncc(Cl)cn1)[C@@]2(O[C@H]1CCOC1)c1ccc(Cl)cc1)C1(F)CCOCC1` (stereo partly drawn) [Example 493, (3R)-3-(4-chlorophenyl)-2-[(5-chloropyrimidin-2-yl)methyl]-4-fluoro-6-[1-(4-fluorooxan-4-yl)-1-hydroxyethyl]-3-[(3S)-oxolan-3-yloxy]-2,3-dihydro-1H-isoindol-1-one], which inhibition at 10 µM is on record?
**A.** Its inhibition at 10 µM is 11%.

**Q.** How did the inhibition at 10 µM turn out when `CC[C@@](O)(c1cc(F)c2c(c1)C(=O)N(Cc1ncc(Cl)cn1)[C@@]2(OCCO)c1ccc(Cl)cc1)C1CCN(C)CC1` [Example 559, (3R)-3-(4-chlorophenyl)-2-[(5-chloropyrimidin-2-yl)methyl]-4-fluoro-6-[(1S)-1-hydroxy-1-(1-methylpiperidin-4-yl)propyl]-3-(2-hydroxyethoxy)-2,3-dihydro-1H-isoindol-1-one] was run?
**A.** The inhibition at 10 µM was 1%.

**Q.** For `C=CC(O)(c1cc(F)c2c(c1)C(=O)N(Cc1ccc(C#N)cn1)[C@@]2(O[C@H]1C[C@@H](O)C1)c1ccc(Cl)cc1)c1cnn(C)c1` (single isomer, unassigned) [Example 361], which inhibition at 10 µM is on record?
**A.** The inhibition at 10 µM was 8%.

**Q.** How did the inhibition at 10 µM turn out when `CCC(O)(c1cc(F)c2c(c1)C(=O)N(Cc1ccc(C#N)cn1)[C@@]2(O[C@H]1CCOC1)c1ccc(Cl)cc1)C1(F)CCOCC1` (stereo partly drawn) [Example 445, 6-{[(1R)-1-(4-chlorophenyl)-7-fluoro-5-[1-(4-fluorooxan-4-yl)-1-hydroxypropyl]-3-oxo-1-[(3S)-oxolan-3-yloxy]-2,3-dihydro-1H-isoindol-2-yl]methyl}pyridine-3-carbonitrile] was run?
**A.** Its inhibition at 10 µM is 16%.

Same assay, conditions: read-out: SN40R2 % inhibition at 10, Protocol B, SN40R2, at 10 μM

**Q.** Which inhibition at 10 µM does the source give for `CCC(O)(c1cc(F)c2c(c1)C(=O)N(Cc1ncc(C#N)cn1)[C@@]2(O[C@H]1CCOC1)c1ccc(Cl)cc1)c1ccn(C)n1` (single isomer, unassigned) [Example 489] here?
**A.** Its inhibition at 10 µM is -9%.

**Q.** Which inhibition at 10 µM does the source give for `CCC(O)(c1cc(F)c2c(c1)C(=O)N(Cc1ncc(Cl)cn1)[C@@]2(OC[C@@H](C)O)c1ccc(Cl)cc1)C1(F)CCN(C)CC1` (single isomer, unassigned) [Example 572] here?
**A.** Its inhibition at 10 µM is 23%.

Same assay, conditions: read-out: SN40R2 IC50 (μM) (Protocol B)

**Q.** For `CN1CCC(C(C)(O)c2cc(F)c3c(c2)C(=O)N(Cc2ccc(Cl)cn2)[C@@]3(OCC2(C(N)=O)CC2)c2ccc(Cl)cc2)CC1` (single isomer, unassigned) [Example 306], which IC50 is on record?
**A.** Its IC50 is 13 µM.

**Q.** For `CO[C@]1(c2ccc(Cl)cc2)c2ccc(C(C)(O)CN3CCN(C)CC3)cc2C(=O)N1Cc1ccc(Cl)cn1` (stereo partly drawn) [Example 255, (3R)-3-(4-chlorophenyl)-2-[(5-chloropyridin-2-yl)methyl]-6-[2-hydroxy-1-(4-methylpiperazin-1-yl)propan-2-yl]-3-methoxy-2,3-dihydro-1H-isoindol-1-one], which IC50 is on record?
**A.** The IC50 was 7.1 µM.

**Q.** With `CO[C@]1(c2ccc(Cl)cc2)c2c(F)cc(C(C)(O)C3CCN(c4ncccn4)CC3)cc2C(=O)N1Cc1ccc(Cl)cn1` (single isomer, unassigned) [Example 286] as the compound, how does the IC50 read?
**A.** Its IC50 is 12 µM.
